This is an account of results in PubChem BioAssay AID1963965 (Molecular Pharmacology Branch, DTP, NCI, 2024).

In the assay the test system is 996289-038-R-J1-PDC spheroid viability. The assay can be described thus: Anticancer human tumor 996289-038-R-J1-PDC patient-derived colon adenocarcinoma cell line growth inhibition [PI3K]. Conditions: spheroids with HUVEC and MSC; for viability, T/C: stronger effect = lower value; for IC50: curve of compound. The text has this:
Combinatorial screen of targeted agents with the PI3K inhibitors inavolisib, alpelisib, duvelisib, and copanlisib in multi-cell type tumor spheroids
A high-throughput screen of multi-cell type tumor spheroids was designed to identify active combinations of targeted small molecules and PI3K pathway inhibitors. Complex spheroids include a stromal component modeled by human endothelial cells (HUVEC) and fibroblasts modeled by human mesenchymal stem cells (MSCs). The concentration ranges selected for each drug and investigational agent were based upon clinically achievable concentrations if the clinical Cmax of the agent was known.
Compounds. The drugs and investigational agents: inavolisib (NSC800729), alpelisib (NSC765974), duvelisib (NSC772469), copanlisib (NSC816437), ipatasertib (NSC767898), afuresertib (NSC778305), talazoparib (NSC767125), sapanisertib (NSC764658), selumetinib (NSC741078), tovorafenib (DAY101, NSC766906), vemurafenib (NSC761431), ravoxertinib (NSC781343), sotorasib (NSC818433), MRTX1133 (NSC 836407), abemaciclib (NSC 768073), palbociclib (NSC758247), venetoclax (NSC 766270), SY5609 (NSC837396), enzalutamide (NSC755605), and darolutamide (NSC825331), were obtained from the National Cancer Institute (NCI) Developmental Therapeutics Program Chemical Repository. The FDA-approved anticancer drug set is available from the NCI Developmental Therapeutics Program. […] The stock solutions were prepared in dimethyl sulfoxide (DMSO, Sigma-Aldrich, St. Louis, MO, cat. D2650) at 800-fold the tested concentration and stored at -70 degrees C prior to their use. All drugs and investigational agents were tested over a range starting from a high concentration at or near the clinical Cmax and decreasing in half-log increments. If the clinical Cmax for an agent had not been determined, the highest concentration tested was 10 microM.
Cell Culture. All cells were maintained in an incubator at 37 degrees C and 5% CO2 with 95% humidity. The PDC lines were cultured according to standard operating procedures established by the NCI PDMR (https://pdmr.cancer.gov/sops/default.htm). All PDCs were thawed and cultured in Matrigel-coated flasks prepared with a working solution of 1X Ham's F-12 nutrient mix, without supplementation (Invitrogen, Waltham, MA, cat. 11765054), 100 U/mL penicillin-streptomycin (Invitrogen, cat. 15140122), and 2.5% Matrigel (Corning Inc., Corning, NY, cat. 354248) for the first three passages. The 354836-022-R-J1-PDC, 475296-252-R-J1-PDC, and 997726-040-R-J2-PDC lines were cultured in 6A media, which includes advanced DMEM/F-12 (Thermo Fisher Scientific, cat. 12634028), 10 mM HEPES (Thermo Fisher Scientific, cat. 15630080), 1X GlutaMAX supplement (Thermo Fisher Scientific, cat. 35050061), 0.1 mg/mL primocin (InvivoGen, San Diego, CA, cat. ant-pm-2), 10% defined fetal bovine serum, heat inactivated (HyClone Laboratories Inc., Logan, UT, cat. SH30070.03HI), 50% L-WRN conditioned media (ATCC, cat. CRL-3276), 1.25 mM N-Acetyl-L-cysteine (Sigma-Aldrich, cat. A9165), 10 mM nicotinamide (Sigma-Aldrich, cat. N0636), 1X B-27 supplement (Thermo Fisher Scientific, cat. 17504044), 1X N-2 supplement (Thermo Fisher Scientific, cat. 17502048), and 10 microM Y-27632 dihydrochloride (Tocris Bioscience, Bristol, United Kingdom, cat. 1254). The 624824-186-R-J2-PDC line was cultured in 6C/Colon 1B media, which includes all 6A media components plus 50 ng/mL human EGF recombinant protein (Thermo Fisher Scientific, cat. PHG0311). […]

Molecules are shown by their SMILES. “And” between values parts separate entries of the source, which are not always exact repeats. Equal entries are not always repeated.
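Also: spheroids exposed to compounds for seven days before viability read.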
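For viability, T/C in this document: luminescence used as a proxy for viable cell amount; percent viability relative to DMSO vehicle control as 100%.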

The viability, T/C is the ratio of treated to control. A word on the IC50: it is the concentration that gives 50% inhibition. With `C#Cc1c(F)ccc2cc(O)cc(-c3ncc4c(N5CC6CCC(C5)N6)nc(OCC56CCCN5CC(F)C6)nc4c3F)c12` (centres undefined), the IC50 was 1.79 µM [middle of 4 runs]. In addition, the viability, T/C (compound 0.0316 µM) is 90.4% [middle of 4 runs]. Also, under “compound 0.1 µM”, the viability, T/C was 83.8% [middle of 4 runs]. Besides, the viability, T/C (compound 0.316 µM) was 70.2% [middle of 4 runs]. For the same compound, the viability, T/C (compound 1 µM) is 52.4% [middle of 4 runs]. For the same compound, where the note is “compound 3.16 µM”, the viability, T/C was 44.8% [middle of 4 runs]. Moreover, the viability, T/C (compound 10 µM) is 37.7% [middle of 4 runs].

As to `C=CC(=O)N1CCN(c2nc(=O)n(-c3c(C)ccnc3C(C)C)c3nc(-c4c(O)cccc4F)c(F)cc23)C(C)C1` (centres undefined), the IC50 is over 10 µM. Further, the viability, T/C (compound 0.0316 µM) is 99.2% [middle of 4 runs]. The viability, T/C (compound 0.1 µM) was 97.6% [middle of 4 runs]. The viability, T/C (compound 1 µM) was 106% [middle of 4 runs]. For the same compound, where the note is “compound 3.16 µM”, the viability, T/C is 117% [middle of 4 runs]. The viability, T/C (compound 10 µM) is 111% [middle of 4 runs].

`CC1(C)CCC(CN2CCN(c3ccc(C(=O)NS(=O)(=O)c4ccc(NCC5CCOCC5)c([N+](=O)[O-])c4)c(Oc4cnc5[nH]ccc5c4)c3)CC2)=C(c2ccc(Cl)cc2)C1`: the IC50 was > 10 µM and 8.8 µM and 8.7 µM. Further, the viability, T/C (compound 0.1 µM) is 103% [middle of 4 runs]. The viability, T/C (compound 0.316 µM) is 101% [middle of 4 runs]. Further, the viability, T/C (compound 1 µM) is 111% [middle of 4 runs]. Besides, where the note is “compound 3.16 µM”, the viability, T/C is 112% [middle of 4 runs]. Moreover, the viability, T/C (compound 10 µM) was 59.5% [middle of 4 runs].

Consider `CC1(C)CCC(Nc2ncc(C(F)(F)F)c(-c3c[nH]c4c(P(C)(C)=O)c(C#N)ccc34)n2)CN1` (centres undefined), for which the IC50 was 6.64 µM [middle of 4 runs]. Under “compound 0.1 µM”, the viability, T/C is 86.5% [middle of 4 runs]. Also, the viability, T/C (compound 0.316 µM) was 86% [middle of 4 runs]. Also, the viability, T/C (compound 1 µM) is 88.9% [middle of 4 runs]. The viability, T/C (compound 3.16 µM) is 91.5% [middle of 4 runs]. The viability, T/C (compound 10 µM) is 26.9% [middle of 4 runs].

With `Cn1ncc(Cl)c1-c1cc(C(=O)NC(CN)Cc2cccc(F)c2)sc1Cl` (centres undefined), the IC50 was > 10 µM and 9.82 µM. Moreover, the viability, T/C (compound 0.0316 µM) was 90% [middle of 4 runs]. Further, the viability, T/C (compound 0.1 µM) was 90.5% [middle of 4 runs]. Further, the viability, T/C (compound 0.316 µM) is 84% [middle of 4 runs]. In addition, the viability, T/C (compound 1 µM) was 79.9% [middle of 4 runs]. The viability, T/C (compound 3.16 µM) was 75.6% [middle of 4 runs]. In addition, the viability, T/C (compound 10 µM) was 52.2% [middle of 4 runs].

Turning to `Cn1nccc1Nc1nccc(-c2ccn(C(CO)c3ccc(Cl)c(F)c3)c(=O)c2)n1` (centres undefined), the IC50 was over 10 µM. For the same compound, where the note is “compound 0.0316 µM”, the viability, T/C was 98.7% [middle of 4 runs]. The viability, T/C (compound 0.1 µM) was 97% [middle of 4 runs]. Also, the viability, T/C (compound 0.316 µM) was 112% [middle of 4 runs]. Where the note is “compound 1 µM”, the viability, T/C is 90.8% [middle of 4 runs]. Besides, for the setting “compound 3.16 µM”, the viability, T/C was 76.5% [middle of 4 runs]. Also, the viability, T/C (compound 10 µM) is 64.7% [middle of 4 runs].
